One molecule from patent US9605013B2, “Derivatives of hemin with antibacterial and antiviral activity” (OBSCHESTVO S OGRANICHENNOI OTVETSTVENNOSTIYU …, priority 2011, dated 2017) can be followed below.

A word on the MIC: it is the smallest concentration in the dilution series that meets the test's criterion for growth inhibition. Lower therefore signals greater potency.

In series [1] the test system is Staphylococcus aureus No. 100 KC. Briefly: Antibacterial specific activity, twofold dilutions, visual growth evaluation. As to conditions: S. aureus 100 KC; 36° C., 24 hours. It counts as cell-based. As for the experimental part:
(§1) The specific activity of compounds also was determined against bacteria strains such as Staphylococcus aureus No. 25923 ATCC (American Type Culture Collection); Staphylococcus aureus No. 100 KC; Staphylococcus epidermidis No. 533; Enterococcus faecalis No. 559; Enterococcus faecium No. 569, Staphylococcus aureus No. 5 (MRSA), Staphylococcus aureus No. 3797 (MRSA). Staphylococcus aureus was cultured on the Trypticase Soy Agar (BBL) commercially available dry medium. Enterococcus faecalis was cultured on the Columbia Agar (BBL) commercially available dry medium. These media were sterilized by autoclaving at 121° C. for 15 min. Bacterial inoculum was constant and was 5×10^5 CFU/ml (10^5 CFU/0.2 ml). For water-soluble compounds, wells from 2nd through 8th were added with the solvent (water) in an amount of 15 μL per well, then the 1st well was added with 30 μL of the stock solution of the tested compound in […] with a concentration of […], and the concentration was adjusted to 0.007×10^3 M by serial twofold dilutions. A 10-μL portion was taken from every well, and 190 μL of the bacterial culture (10^5 CFU) was added per well. For DMSO-soluble compounds, wells from 2nd through 8th were added with the solvent (DMSO) in an amount of 10 μL per well, then the 1st well was added with 20 μL of the stock solution of the tested compound in […] with a concentration of […], and the concentration was adjusted to 0.039×10^3 M by serial twofold dilutions. A 2-μL portion was taken from each well, and 198 μL of the bacterial culture (10^5 CFU) was added per well.
(§2) The control comprised wells free of tested compounds (culture growth control). In addition, purity control of nutritional media and solvents was used. Plates were incubated in a thermostat at 36° C. for 24 hours.
(§3) Culture growth was evaluated visually by comparison of how microorganisms grew in the presence of tested compounds and in the absence of them. MIC was set equal to the last dilution of a tested agent which suppressed bacterial culture growth.

For series [2], the system named is Staphylococcus aureus No. 3797 (MRSA). Described as above. Type of series: cell-based. As to conditions: St. aur No. 3797 MRSA; 36° C., 24 hours. Here is the method: as §1, §2, §3
In series [3] the test system is Vancomycin-resistant Enterococcus faecium 569. Described as above. Type of series: cell-based. The settings on record: Vancomycin-resistant E. faecium 569; 36° C., 24 hours. As for the experimental part: as §1, §2, §3
Series [4] relates to Enterococcus faecalis No. 559. Described as above. It counts as cell-based. As to conditions: E. faecalis 559; 36° C., 24 hours. As for the experimental part: as §1, §2, §3
In series [5] the test system is Staphylococcus aureus No. 5 (MRSA). The series is described as above. Type of series: cell-based. As to conditions: St. aur No. 5 MRSA; 36° C., 24 hours. Here is the method:
as §1, §2, §3

The subject of series [6] is Staphylococcus aureus No. 25923 ATCC. The series is described as above. The settings on record: S. aureus 25923; 36° C., 24 hours. It counts as cell-based. As for the experimental part: as §1, §2, §3
Series [7] relates to Staphylococcus epidermidis No. 533. The description is as above. It counts as cell-based. As to conditions: S. epidermis 533; 36° C., 24 hours. As for the experimental part:
as §1, §2, §3

In another series the test system is Escherichia coli 4300. Described as above. Type of series: cell-based. As to conditions: E. coli 4300; 36° C., 24 hours. Here is the method: [Worded in the source for another organism; this organism is reported under the same test.] as §1, §2, §3

`C=CC1=C(C)c2cc3[n-]c(cc4[n-]c(cc5nc(cc1n2)C(C)=C5C=C)c(C)c4CCC(=O)N[C@@H](CCC(=O)NCCO)C(=O)NCCO)c(CCC(=O)N[C@@H](CCC(=O)NCCO)C(=O)NCCO)c3C.[Cl-].[Fe+3]` [XI, 6,7-bis-[(Di-2-hydroxyethylamide)-L-glutamyl]-Protohemin (IX)]: the water solubility result in “Water solubility” is reported as “water-insoluble”. Further, the MIC was more than 50.0 µM in series [1]; 12.5 µM in [2]; more than 50.0 µM in [3]; 33.3 µM in [4]; 12.5 µM in series [5]; 0.39 µM in series [6]. The MIC was 6.25 µM in [7] and more than 50.0 µM in the series on Escherichia coli 4300.
